For one series, the system named is TC-3 cells. Put plainly: Inhibition of IL-1 induced pancreatic beta-cell death. The class given is cell-based. As to conditions: 1 μM single addition, IL-1 every two days, 15 days. Here is the method: Inhibition of IL-1 induced pancreatic beta-cell death by the D-TAT-IB1(s) peptide was analyzed. TC-3 cells were incubated for 30 minutes with one single addition of the indicated peptides (1, μM), then IL-1 (10 ng/ml) was added.
Apoptotic cells were then counted after two days of incubation with IL-1 by use of Propidium Iodide and Hoechst 33342 nuclear staining. A minimum of 1,000 cells were counted for each experiment.
Long term inhibition of IL-1P induced cell-death by the D-TAT-IB1 peptide was also analyzed. TC-3 cells were incubated for 30 minutes with one single addition of the indicated peptides (1 μM), then IL-1 (10 ng/ml) was added, followed by addition of the cytokine every two days. Apoptotic cells were then counted after 15 days of incubation with IL-1 by use of propidium iodide and Hoechst 33342 nuclear staining. […] A minimum of 1.000 cells were counted for each experiment.

In a further series the test system is U937 cells. The series is described as follows: Intracellular concentration of transporter constructs subsequent to uptake into U937 cells. The settings on record: for intracellular concentration of transporter construct subsequent to uptake: U937 cells, 10 μM construct. The class given is cell-based. Here is the method: 9. Determination of Intracellular Concentration of Specific Transporter Constructs Subsequent to Uptake (Internalization) of these Peptides into U937 Cells • According to a further experiment, the concentration of specific transporter constructs subsequent to uptake (internalization) of these peptides into U937 cells were determined.

Another series relates to Hela cells. The series is described as follows: Internalization of r3-L-TAT-derived transporters in Hela cells. In kind it is cell-based. As to conditions: 2, 6 or 24 hours; 0, 500 nM, 1 mM or 10 mM. From the text:
The time dependant internalization (uptake) of FITC-labeled TAT derived transporter constructs into cells of the HL-60 cell line was furthermore carried out with materials and methods as described above using sequences of the 96-FITC-labeled D-TAT derivative transporters. These sequences are listed below.
• In the above table D amino acids are indicated by a small “d” prior to the respective amino acid residue (e.g. dR=D-Arg). • For a few sequences synthesis failed in the first approach unfortunately due to technical reasons. […] Hela cells were incubated 24 hours in 96 well plate with […] of the r3-L-TAT-derived transporters. Alternatively, human lymphoma cells are used. The cells were then washed twice with an acidic buffer (0.2M Glycin, 0.15M NaCl, pH 3.0) and twice with PBS. Cells were broken by the addition of RIPA lysis buffer. […] Briefly, Hela cells were incubated 2, 6 or 24 hours in 24 well plate with increasing dose of the r3-L-TAT-derivative transporters (0, 500 nM, 1 mM or 10 mM). The cells were then washed twice with an acidic buffer (0.2M Glycin, 0.15M NaCl, pH 3.0) and twice with PBS. Cells were broken by the addition of RIPA lysis buffer.

The test system of series [1] is HepG2 hepatocarcinoma, HCT-116 tumoral colon. The series is described as follows: Uptake of FITC-labeled TAT derived transporter constructs in HepG2 and HCT-116. As to conditions: 10 μM, 24 h. The class given is cell-based, human.
The test system of the next series is U937 lymphoma cells. Put plainly: Uptake (internalization) of FITC-labeled TAT derived transporter constructs in U937 cells, fluorescence plate reader. In kind it is cell-based.
For series [2], the system named is dissociated cortical primary neurons. Put plainly: Confocal microscopy of FITC-labeled TAT derivative transporters in cortical primary neurons. The class given is cell-based, rat. As to conditions: 500 nM, 24 hours. Here is the method: 8.4 Internalization Experiments and Analysis • The time dependant internalization (uptake) of FITC-labeled TAT derived transporter constructs into cells of the HL-60 cell line was carried out with materials and methods as described above. • Briefly, HL-60 cells were incubated 30 min, 1, 6 or 24 hours with 10 μM of the TAT-derivative transporters. The cells were then washed twice with an acidic buffer (0.2 M Glycin, 0.15 M NaCl, pH 3.0) and twice with PBS. Cells were broken by the addition of RIPA lysis buffer. The relative amount of internalized peptide was then determined by reading the fluorescence intensity (Fusion Alpha plate reader; PerkinElmer) of each extract followed by background substraction and protein content normalization. […] The dissociated cortical primary neurons from P2 Sprague Dawley rats were cultured 12 days in neurobasal medium before exposure 24 hours to 500 nM of the FITC-labeled • TAT derivative transporters. The cells were washed five times with PBS on ice and then mounted in fluorsave mounting medium without prior fixation. Acquisitions were performed on LSM510 metaconfocal microscope (Zeiss). Images were processed with LSM510 software and mounted using Adobe photoshop. Visualization by confocal microscopy of labeling with 500 nM FITC-transporters (A: green). Nuclei were stained by Hoechst (B: blue).

Series [3] can be described thus: Tissue distribution of C14 radiolabeled D-TAT-tagged peptides. In kind it is in vivo, mouse. As to conditions: 1 mg/kg s.c., i.v., i.p.; 72 hours after injection. Here is the method:
Mice were treated via three different routes of administration (s.c., i.v., i.p.) with radiolabeled peptides with C^14 (1 mg/kg). Animals were sacrificed 72 hours after injection and processed for immunoradiography. […] This illustrates that the transporter D-TAT is responsible for the tissue distribution.

In a further series the test system is Monocytes (CD14). Put plainly: Flow cytometry of FITC-transporter content in primary human white blood cells: monocytes. The class given is cell-based. As to conditions: 1 uM, 30 min. An excerpt:
(§1) Primary human white blood cells (WBC) were obtained from whole blood after red blood cell lysis. […] Cells containing D-TAT-FITC and r3-L-TAT-FITC were finally analysed by flow cytometry to measure their respective transporter content.

Another series deals with Neutrophils (CD15). Put plainly: Flow cytometry of FITC-transporter content in primary human white blood cells: neutrophils. The class given is cell-based. The settings on record: 1 uM, 30 min.
From the text: as §1

Another series has as its system Lymphocytes T (CD3). Put plainly: Flow cytometry of FITC-transporter content in primary human white blood cells: lymphocytes T. In kind it is cell-based. The settings on record: 1 uM, 30 min.
From the text: as §1

In another series the test system is Lymphocytes B (CD19). Put plainly: Flow cytometry of FITC-transporter content in primary human white blood cells: lymphocytes B. In kind it is cell-based. As to conditions: 1 uM, 30 min.
From the text: as §1

Square brackets hold non-standard residues; d marks the D form. Ends that are not written are not given here.

Procedure for U937 lymphoma cells: Cells were plated into poly-DL-lysine coated dishes at a concentration of 1×10^6 cells/ml. Plates were then incubated for 24 h at 37° C., 5% CO2, and 100% relative humidity prior to the addition of a known concentration of peptide. After peptide addition, the cells were incubated 30 min, 1, 6 or 24 h at 37° C., 5% CO2, and 100% relative humidity. Cells were then washed twice with an acidic buffer (Glycin 0.2 M, NaCl 0.15 M, pH 3.0) in order to remove the cell-surface adsorbed peptide (see Kameyama et al., (2007), Biopolymers, 88, 98-107). […] The cell wash using an acidic buffer was thus employed to remove the cell-surface adsorbed peptides. […] Cells were broken by the addition of the RIPA lysis buffer. The relative amount of internalized peptide was then determined by fluorescence after background substraction and protein content normalization. • The steps are thus: 1. […] Analysis of peptide internalization with a fluorescence plate reader • f) Cell Culture and Peptide Treatment • (1) The 6 well culture plates are coated with 3 ml of Poly-D-Lys (Sigma P9011; 25 μg/ml in PBS), the 24 well plates with 600 μl and the 96 well plates with 125 μl and incubated for 4 h at 37° C., CO2 5% and 100% relative humidity. • (2) After 4 hours the dishes were washed twice with 3.5 ml PBS, 700 μl or 150 μl PBS for the 6, 24 or 96 well plates, respectively. • (3) The cells were plated into the dishes in 2.4 ml medium (RPMI) at plating densities of 1′000′000 cells/ml for suspension cells. After inoculation, the plates were incubated at 37° C., 5% CO2 and 100% relative humidity for 24 hours prior to the addition of the peptide. Adherent cells should be at a density of 90-95% the day of treatment and were plated in DMEM :
• (4) The cells were treated with the desired concentration of FITC labeled peptide (stock solution at a concentration of 10 mM in H2O). • (5) Following peptide addition, the cells were incubated 0 to 24 hours (e.g. 30 min, 1, 6 or 24 hours) at 37° C., CO2 5% and 100% relative humidity. • Acidic Wash and Cellular Extracts: • (6) The extracts were cooled on ice. • Suspension cells (or cells, which don attach well to the dish): • Transfer the cells in ? […] To recover the maximum of cells, wash the dish with 1 ml of PBS. • Harvest the cells 2 min at 2400 rpm max. • Suspend the cells in 1 ml cold PBS. • Transfer the cells into a coated “Eppendorf tube” (coated with 1 ml of poly D-Lys for 4 hours and washed twice with 1 ml PBS). • Wash three times with 1 ml of cold acidic wash buffer and centrifuge 2 min at 2400 rpm max. Beware of the spreading of the cells in the “eppendorf”. • Wash twice with 1 ml cold PBS to neutralize. • Add 50 μl of lysis RIPA Buffer. • Incubate 30 min-1 h on ice with agitation. • Adherent Cells: • Wash three times with 3 ml, 1 ml or 200 μl (for 6, 24 or 96 well plates, respectively) of cold acidic wash buffer. Beware of the cells who detach from the dish. • Wash twice with 1 ml cold PBS (for 6, 24 or 96 well plates, respectively) to neutralize. • Add 50 μl of lysis RIPA buffer. • Incubate 30 min-1 h on ice with agitation. • Scrap the cells with a cold scrapper. The 24 and 96 well plates were directly centrifuged at 4000 rpm at 4° for 15 min to remove the cellular debris. Then the supernatants (100 or 50 ml respectively for the 24 or 96 well plates) were directly transferred in a dark 96 well plated.

As for “L-TAT-IB1(s): SEQ ID NO: 234: L-IB1(s) linked to 10 amino acid L-TAT carrier via two proline residues (GRKKRRQRRRPPRPKRPTTLNLFPQVPRSQD; Description of sequence L-TAT-IB1 (s))”, in the series with TC-3 cells, the “long term protection against IL-1 induced cell-death” value is recorded as “but not L-TAT-IB1(s), was able to confer long term (15 day) protection”.

Regarding “rYKRrQRRr ([dR]YKR[dR]QRR[dR]) [TAT(s2-91)]”, the “accumulation in the cell (intracellular concentration)” value in the series with U937 cells (10 μM in medium) is “significantly higher than the concentration of the transporter construct in the medium”. Also, the “intracellular concentration of transporter construct subsequent to uptake” value with U937 cells (2 h) came to 3.16; with U937 cells (4 h), 4.27; with U937 cells (6 h), 4.68; in the series on U937 cells (24 h), 50. The “transporter activity and kinetics of transport activity” value in the series with Hela cells was “highest transporter activity”.

As to rrrRRRrrr [r6R3], the “uptake (internalization)” value in series [1] was “most efficient”.

As to rrrqrrkkr [D-TAT], the “uptake (internalization)” value with U937 lymphoma cells (10 μM, U937, Lymphoma, 24 h) is recorded as “most efficient”; in series [1], “most efficient”. For the same substance, in the series with U937 lymphoma cells (500 nm over 24 hours in U937 cells), the “HSPG dependency of uptake (internalization)” value was “HSPG-dependent”. For the same substance, the “intracellular concentration of transporter construct subsequent to uptake” value is reported as 2.00 in the series on U937 cells (2 h), 2.24 with U937 cells (4 h), 3.55 with U937 cells (6 h) and 17.3 with U937 cells (24 h). In addition, in [2], the “internalization seen by confocal microscopy” value is reported as “internalized into the cytoplasm of the non stressed neurons”. For the same substance, the “tissue distribution (accumulation)” value in series [3] was “in the liver, spleen, and bone marrow predominantly”. For the same substance, the “binding to cell population” value is “binds to monocytes, neutrophils and lymphocyte T cells” in the series on Monocytes (CD14); “binds to monocytes, neutrophils and lymphocyte T cells” with Neutrophils (CD15); “seeming to bind more efficiently to lymphocyte T than the r3-L-TAT” with Lymphocytes T (CD3); “binds to monocytes, neutrophils and lymphocyte T cells” in the series on Lymphocytes T (CD3) (listed as dTAT); “less efficiently to lymphocyte B cells” in the series with Lymphocytes B (CD19).
